Test results reported in ChEMBL document CHEMBL1201862, “PubChem BioAssay data set” (2004).
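Each compound was tested at five concentrations against cells in 96-well plates for 48 hours. Here, GI50 denotes the concentration required for 50% inhibition of growth.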 Activity calls are given as the source filed them. Rule as the data show it: active = GI50 up to about 1.1 µM and inactive = higher.

How the values were obtained:
Experiment in all cases: NCI tumour cell line growth inhibition, 48 h
UACC-62 = system: UACC-62
SF-295 = system: SF-295
DMS-114 = system: DMS-114
HCT-116 = system: HCT-116
SNB-75 = system: SNB-75
CAKI-1 = system: CAKI-1
CCRF-CEM = system: CCRF-CEM
HOP-18 = system: HOP-18
RXF 393 = system: RXF 393
SK-OV-3 = system: SK-OV-3
HT-29 = system: HT-29
NCI-H226 = system: NCI-H226
ACHN = system: ACHN
M19-MEL = system: M19-MEL
DMS-273 = system: DMS-273
LOX IMVI = system: LOX IMVI
MOLT-4 = system: MOLT-4
SNB-78 = system: SNB-78
NCI-H23 = system: NCI-H23
SW-620 = system: SW-620
A498 = system: A498
HL-60 = system: HL-60
NCI-H522 = system: NCI-H522
UACC-257 = system: UACC-257
RXF 631 = system: RXF 631
U-251 = system: U-251
SK-MEL-2 = system: SK-MEL-2
HCC 2998 = system: HCC 2998
A549 = system: A549
KM12 = system: KM12
SK-MEL-5 = system: SK-MEL-5
SF-268 = system: SF-268
XF498 = system: XF498
SK-MEL-28 = system: SK-MEL-28
Malme-3M = system: Malme-3M
786-0 = system: 786-0
M14 = system: M14
OVCAR-8 = system: OVCAR-8
SNB-19 = system: SNB-19
K562 = system: K562
SR = system: SR
LXFL 529 = system: LXFL 529
DLD-1 = system: DLD-1
OVCAR-4 = system: OVCAR-4
OVCAR-5 = system: OVCAR-5
RPMI-8226 = system: RPMI-8226
SF-539 = system: SF-539
UO-31 = system: UO-31
HCT-15 = system: HCT-15
KM-20L2 = system: KM-20L2
IGROV-1 = system: IGROV-1
SN12C = system: SN12C
NCI-H460 = system: NCI-H460
HOP-62 = system: HOP-62
TK-10 = system: TK-10
EKVX = system: EKVX
COLO 205 = system: COLO 205
OVCAR-3 = system: OVCAR-3
HOP-92 = system: HOP-92

Measured: GI50

Cc1nnc(N/N=C2\C(=O)Nc3ccccc32)n1N
inactive: UACC-62 > 100 µM | SF-295 > 100 µM | DMS-114 > 100 µM | HCT-116 > 100 µM | SNB-75 > 100 µM | CAKI-1 > 100 µM | CCRF-CEM > 100 µM | HOP-18 > 100 µM | RXF 393 > 100 µM | SK-OV-3 > 100 µM | HT-29 > 100 µM | NCI-H226 > 100 µM | ACHN > 100 µM | M19-MEL > 100 µM | DMS-273 > 100 µM | LOX IMVI > 100 µM | MOLT-4 > 100 µM | SNB-78 > 100 µM | NCI-H23 > 100 µM | SW-620 > 100 µM | A498 > 100 µM | HL-60 25.9 µM | NCI-H522 > 100 µM | UACC-257 > 100 µM | RXF 631 > 100 µM | U-251 > 100 µM | SK-MEL-2 > 100 µM | HCC 2998 > 100 µM | A549 > 100 µM | KM12 > 100 µM | SK-MEL-5 > 100 µM | SF-268 > 100 µM | XF498 > 100 µM | SK-MEL-28 > 100 µM | Malme-3M > 100 µM | 786-0 > 100 µM | M14 > 100 µM | OVCAR-8 > 100 µM | SNB-19 > 100 µM | K562 29.6 µM | SR > 100 µM | LXFL 529 > 100 µM | DLD-1 > 100 µM | OVCAR-4 > 100 µM | OVCAR-5 > 100 µM | RPMI-8226 > 100 µM | SF-539 > 100 µM | UO-31 > 100 µM | KM-20L2 > 100 µM | IGROV-1 > 100 µM | SN12C > 100 µM | NCI-H460 > 100 µM | HOP-62 > 100 µM | TK-10 > 100 µM | EKVX > 100 µM | COLO 205 67.5 µM | OVCAR-3 > 100 µM
> 100 µM: HCT-15

CCCOC(=O)CNC(=O)OC(C)(C)C
> 100 µM: HCT-15
inactive: UACC-62 > 100 µM | SF-295 > 100 µM | DMS-114 > 100 µM | HCT-116 > 100 µM | SNB-75 > 100 µM | CAKI-1 > 100 µM | CCRF-CEM > 100 µM | RXF 393 > 100 µM | SK-OV-3 > 100 µM | HT-29 > 100 µM | NCI-H226 > 100 µM | ACHN > 100 µM | HOP-92 > 100 µM | M19-MEL > 100 µM | DMS-273 > 100 µM | LOX IMVI > 100 µM | SNB-78 > 100 µM | NCI-H23 > 100 µM | SW-620 > 100 µM | HL-60 > 100 µM | NCI-H522 > 100 µM | UACC-257 > 100 µM | RXF 631 > 100 µM | U-251 > 100 µM | SK-MEL-2 > 100 µM | HCC 2998 > 100 µM | A549 > 100 µM | KM12 > 100 µM | SK-MEL-5 > 100 µM | SF-268 > 100 µM | XF498 > 100 µM | SK-MEL-28 > 100 µM | Malme-3M > 100 µM | M14 > 100 µM | OVCAR-8 > 100 µM | SNB-19 > 100 µM | K562 > 100 µM | SR > 100 µM | LXFL 529 > 100 µM | DLD-1 > 100 µM | OVCAR-4 > 100 µM | OVCAR-5 > 100 µM | SF-539 > 100 µM | UO-31 > 100 µM | KM-20L2 > 100 µM | IGROV-1 > 100 µM | NCI-H460 > 100 µM | HOP-62 > 100 µM | TK-10 > 100 µM | EKVX > 100 µM | COLO 205 > 100 µM | OVCAR-3 > 100 µM
active: HOP-18 0.897 µM

COc1cc(/C=C(\OC(C)=O)c2ccc3c(c2)OCO3)cc(OC)c1OC
16 µM: HCT-15
inactive: UACC-62 16.6 µM | SF-295 23.8 µM | DMS-114 13.4 µM | HCT-116 18.2 µM | SNB-75 20.6 µM | CAKI-1 22.1 µM | CCRF-CEM 25.4 µM | HOP-18 20.9 µM | RXF 393 24.8 µM | SK-OV-3 17.5 µM | HT-29 22.3 µM | NCI-H226 11.5 µM | ACHN 17.9 µM | HOP-92 15.6 µM | M19-MEL 14.9 µM | DMS-273 14.8 µM | LOX IMVI 16.1 µM | MOLT-4 13.3 µM | SNB-78 35.5 µM | NCI-H23 16.4 µM | SW-620 28.5 µM | A498 16.1 µM | HL-60 27.4 µM | NCI-H522 13.5 µM | UACC-257 18.4 µM | RXF 631 > 10 µM | U-251 18.5 µM | SK-MEL-2 22.8 µM | HCC 2998 > 10 µM | A549 26.7 µM | KM12 19 µM | SK-MEL-5 11.8 µM | SF-268 20 µM | XF498 14 µM | SK-MEL-28 17.7 µM | Malme-3M 23 µM | 786-0 29 µM | M14 16.3 µM | OVCAR-8 16.3 µM | SNB-19 28.2 µM | K562 25.5 µM | SR 8.2 µM | LXFL 529 14.4 µM | DLD-1 18.6 µM | OVCAR-4 18.3 µM | OVCAR-5 24.5 µM | RPMI-8226 20.8 µM | SF-539 18 µM | UO-31 4.15 µM | KM-20L2 31.1 µM | IGROV-1 10.9 µM | SN12C 20.2 µM | NCI-H460 33 µM | HOP-62 20 µM | TK-10 26.6 µM | EKVX 15.9 µM | COLO 205 19.9 µM | OVCAR-3 18.3 µM

O=C(c1cc2ccccc2o1)N(Cc1ccccc1)c1ccccc1
inactive: UACC-62 14.4 µM | SF-295 34.4 µM | DMS-114 19.3 µM | HCT-116 16.9 µM | SNB-75 28.3 µM | CAKI-1 19.5 µM | CCRF-CEM 13.6 µM | HOP-18 30.5 µM | RXF 393 26 µM | SK-OV-3 33.2 µM | HT-29 22.8 µM | NCI-H226 15.6 µM | ACHN 26.6 µM | HOP-92 20.7 µM | M19-MEL 21.7 µM | DMS-273 30.8 µM | LOX IMVI 21 µM | MOLT-4 16.6 µM | SNB-78 63.1 µM | NCI-H23 27 µM | SW-620 15.8 µM | A498 34.4 µM | HL-60 16.4 µM | NCI-H522 16.4 µM | UACC-257 20.3 µM | RXF 631 26.9 µM | SK-MEL-2 33.8 µM | HCC 2998 23.4 µM | A549 32.6 µM | KM12 20.6 µM | SK-MEL-5 16.1 µM | SF-268 41.4 µM | XF498 23.3 µM | SK-MEL-28 36.9 µM | Malme-3M 23.7 µM | 786-0 20.2 µM | M14 18.6 µM | OVCAR-8 22.9 µM | SNB-19 35.9 µM | K562 15 µM | SR 26.9 µM | LXFL 529 30.8 µM | DLD-1 22.8 µM | OVCAR-5 30.3 µM | RPMI-8226 18.2 µM | UO-31 22.9 µM | KM-20L2 17.3 µM | IGROV-1 35.5 µM | SN12C 18 µM | NCI-H460 26.9 µM | HOP-62 30.5 µM | TK-10 33.6 µM | EKVX 27 µM | COLO 205 20.4 µM | OVCAR-3 20.3 µM
18 µM: HCT-15

N/C(=N\O)N/N=C/c1cccs1
inactive: UACC-62 15.8 µM | SF-295 > 100 µM | DMS-114 54.8 µM | HCT-116 > 100 µM | SNB-75 20 µM | CAKI-1 34.4 µM | CCRF-CEM > 100 µM | HOP-18 53.8 µM | RXF 393 > 100 µM | SK-OV-3 37.8 µM | HT-29 45.1 µM | NCI-H226 57.1 µM | ACHN 42.3 µM | HOP-92 > 100 µM | M19-MEL > 100 µM | DMS-273 > 100 µM | SNB-78 > 100 µM | NCI-H23 > 100 µM | SW-620 > 100 µM | A498 > 100 µM | HL-60 28.1 µM | NCI-H522 25.1 µM | UACC-257 > 100 µM | RXF 631 > 100 µM | U-251 > 100 µM | SK-MEL-2 76.7 µM | HCC 2998 33.4 µM | A549 23.9 µM | KM12 49.1 µM | SF-268 17.2 µM | XF498 98.9 µM | SK-MEL-28 > 100 µM | Malme-3M 55.8 µM | 786-0 > 100 µM | M14 47.1 µM | OVCAR-8 71.9 µM | SNB-19 > 100 µM | K562 86.9 µM | SR 67.3 µM | LXFL 529 32.4 µM | DLD-1 59.6 µM | OVCAR-4 34 µM | OVCAR-5 47.1 µM | SF-539 > 100 µM | UO-31 55.1 µM | IGROV-1 35.4 µM | SN12C 59.8 µM | NCI-H460 33.7 µM | HOP-62 24.7 µM | TK-10 > 100 µM | EKVX 23.7 µM | COLO 205 55.7 µM | OVCAR-3 34.9 µM
79.1 µM: HCT-15
